Test results as given in patent US5185358A, “3-heteroatom containing urea and thiourea ACAT inhibitors” (Warner-Lambert Co., priority 1991, dated 1993).

What was measured:
[1] = In vivo screen designated APCC: blood cholesterol in rats on chow supplemented with peanut oil, cholesterol and cholic acid; conditions: cholesterol in blood, male Sprague-Dawley rats, oral, 30 milligrams per kilogram, single dose 4 PM, blood samples 8 AM next day, vs vehicle control (CMC/Tween); for change in vivo at 30 mg/kg: Rattus norvegicus, 16 h, read-out: % Change (mg/dl)
From the text: In one in vivo screen designated APCC, male Sprague-Dawley rats (200 to 225 g) were randomly divided into treatment groups and dosed orally at 4 PM with either vehicle (CMC/Tween) or suspensions of test compounds in vehicle. The control group received vehicle alone. Immediately after dosing, all animals received ad libitum a chow diet supplemented with peanut oil (5.5%), cholesterol (1.5%) and cholic acid (0.5%). The next day the animals were sacrificed at 8 AM to obtain blood samples for cholesterol analysis using standard procedures. Statistical differences between mean cholesterol values for the same vehicle were determined using analysis of variance followed by Fisher's least significant test. The compounds were administered at 30 milligrams per kilogram of body weight.

[2] = target: T1, acyl-CoA:cholesterol acyltransferase (ACAT) (Oryctolagus cuniculus, UniProt G1SFD9); assay: In vitro ACAT inhibition: radiolabeled cholesterol oleate formed from radiolabeled oleic acid in rabbit intestinal microsomes; assay type: biochemical; conditions: concentration required to inhibit 50% activity of the enzyme
T1 sequence (G1SFD9 1-524): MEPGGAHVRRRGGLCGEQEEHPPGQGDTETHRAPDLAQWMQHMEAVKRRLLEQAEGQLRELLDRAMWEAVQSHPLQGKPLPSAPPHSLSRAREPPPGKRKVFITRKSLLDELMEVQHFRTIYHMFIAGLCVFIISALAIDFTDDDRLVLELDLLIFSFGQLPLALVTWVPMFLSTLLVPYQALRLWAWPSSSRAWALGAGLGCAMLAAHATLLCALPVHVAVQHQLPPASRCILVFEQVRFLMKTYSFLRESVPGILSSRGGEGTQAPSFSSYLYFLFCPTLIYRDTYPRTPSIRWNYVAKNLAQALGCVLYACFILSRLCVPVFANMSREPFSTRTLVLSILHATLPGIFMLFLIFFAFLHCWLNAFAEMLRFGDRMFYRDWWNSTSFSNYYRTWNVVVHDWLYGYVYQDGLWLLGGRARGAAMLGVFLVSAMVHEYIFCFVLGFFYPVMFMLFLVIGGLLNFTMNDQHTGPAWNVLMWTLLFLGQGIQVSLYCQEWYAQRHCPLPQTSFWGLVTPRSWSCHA
Procedure: The ability of representative compounds of the present invention to inhibit ACAT was measured using an in vitro test more fully described by Field, F. J. and Salone, R. G., in Biochemica et Biophysica 712:557-570 (1982). The test assesses the ability of a test compound to inhibit the acylation of cholesterol by oleic acid by measuring the amount of radiolabeled cholesterol oleate formed from radiolabeled oleic acid in a tissue preparation containing rabbit intestinal microsomes.

Molecule	IC50 [2] [nM]	change in vivo at 30 mg/kg [1] [%]	% Change (mg/dl) [1] [%]
CCCCCCCCCCCCc1nc(NC(=O)Nc2c(C(C)C)cccc2C(C)C)n[nH]1 [Example 4, N-[2,6-bis(1-methylethyl)phenyl]-N'(5-dodecyl-1H-1,2,4-triazol-3-yl)urea]		12	
CCCCCCCCCCCCCCc1nc(NC(=O)Nc2c(C(C)C)cccc2C(C)C)n[nH]1 [Example 6]	> 5000	-1	
CCCCCCCCCCCn1cnc(NC(=O)Nc2c(C(C)C)cccc2C(C)C)n1 [Example 8, N-[2,6-bis(1-methylethyl)phenyl]-N-(1-undecyl-1,2,4-triazol-3-yl)urea]	110	-39	
CCCCCCCCCCCCn1cnnc1NC(=O)Nc1c(C(C)C)cccc1C(C)C [Example 12, N-[2,6-bis(1-methylethyl)phenyl]-N'-(4-dodecyl-4H-1,2,4-triazol-3-yl)urea]		-28	
CCCCCCCCCCCCCSc1nnc(NC(=O)Nc2c(C(C)C)cccc2C(C)C)n1C(C)=O [Example 14, 4-Acetyl-N-[[[2,6-bis(1-methylethyl)phenyl]amino]carbonyl]-5-(tridecylthio)-4H-1,2,4-triazol-3-amine]		-21	
CCCCCCCCCCCCCSc1nnc(NC(=O)Nc2c(C(C)C)cccc2C(C)C)[nH]1 [Example 15, N-[[[2,6-Bis(1-methylethyl)phenyl]amino]carbonyl]-5-(tridecylthio)-4H-1,2,4-triazol-3-amine]		12	
CCCCCCCCCCCCC[S+]([O-])c1nc(NC(=O)Nc2c(C(C)C)cccc2C(C)C)n[nH]1 (stereo not shown) [Example 16, N-[2,6-Bis(1-methylethyl)phenyl]-N'-[5-(tridecylsulfinyl)-1H-1,2,4-triazol-3-yl]urea]		-6	
CCCCCCCCCCCCCS(=O)(=O)c1nnc(NC(=O)Nc2c(C(C)C)cccc2C(C)C)[nH]1 [Example 17]		-11	
CCCCCCCCCCCc1nnc(NC(=O)Nc2c(C(C)C)cccc2C(C)C)s1 [Example 18, N-[2,6-bis(1-methylethyl)phenyl]-N'-(5-undecyl-1,3,4-thiadiazol-2-yl)urea]	39	-44	
CCCCCCCCCc1nnc(NC(=O)Nc2c(C(C)C)cccc2C(C)C)s1 [Example 21, N-[2,6-bis(1-methylethyl)phenyl]-N'-(5-nonyl-1,3,4-thiadiazol-2-yl)urea]		-45	
CCCCCCCCCCCCCc1nnc(NC(=O)Nc2c(C(C)C)cccc2C(C)C)s1 [Example 22, N-[2,6-bis(1-methylethyl)phenyl]-N'-(5-tridecyl-1,3,4-thiadiazol-2-yl)urea]		-8	
CCCCCCCCCCCCCc1nnc(NC(=O)Nc2c(C(C)C)cccc2C(C)C)o1 [Example 25, N-[2,6-bis(1-methylethyl)phenyl]-N'-(5-tridecyl-1,3,4-oxadiazol-2-yl)urea]		-62	

Continued, in another order:

IC50 [2] [nM]	Molecule	change in vivo at 30 mg/kg [1] [%]	% Change (mg/dl) [1] [%]
> 5000	CCCCCCCCCCCc1nc(NC(=O)Nc2c(C(C)C)cccc2C(C)C)n(C(C)=O)n1 [Example 1, N-[2,6-bis(1-methylethyl)phenyl]-N'-(2-acetyl-5-undecyl-2H-1,2,4-triazol-3-yl)urea]	-38	
> 5000	CCCCCCCCCCCc1nc(NC(=O)Nc2c(C(C)C)cccc2C(C)C)n[nH]1 [Example 2, N-[2,6-bis(1-methylethyl)phenyl]-N'-(5-undecyl-1H-1,2,4-triazol-3-yl)urea]	-31	
140	CCCCCCCCCCCn1ncnc1NC(=O)Nc1c(C(C)C)cccc1C(C)C [Example 7, N-[2,6-bis(1-methylethyl)phenyl]-N'-(2-undecyl-2H-1,2,4-triazol-3-yl)urea]	-38	
670	CCCCCCCCCCCn1cnnc1NC(=O)Nc1c(C(C)C)cccc1C(C)C [Example 9, N-[2,6-bis(1-methylethyl)phenyl]-N'(4-undecyl-1,2,4-triazol-3-yl)urea]	-21	
1500	CCCCCCCCCCCCn1cnc(NC(=O)Nc2c(C(C)C)cccc2C(C)C)n1 [Example 11, N-[2,6-bis(1-methylethyl)phenyl]-N'-(1-dodecyl-1H-1,2,4-triazol-3-yl)urea]	-30	
600	CCCCCCCCCCCCSc1nnc(NC(=O)Nc2c(C(C)C)cccc2C(C)C)n1C(C)=O [Example 13, 4-acetyl-N-[[[2,6-bis(1-methylethyl)phenyl]amino]carbonyl]-5-(dodecylthio)-4H-1,2,4-triazol-3-amine]	-41	
> 5000	Cc1nnc(NC(=O)Nc2c(C(C)C)cccc2C(C)C)s1 [Example 19, N-[2,6-bis(1-methylethyl)phenyl]-N'-(5-methyl-1,3,4-thiadiazol-2-yl)urea]		
400	CCCCCCCc1nnc(NC(=O)Nc2c(C(C)C)cccc2C(C)C)s1 [Example 20, N-[2,6-bis(1-methylethyl)phenyl]-N'-(5-heptyl-1,3,4-thiadiazol-2-yl)urea]	-25	
34	CCCCCCCCCCCCc1nnc(NC(=O)Nc2c(C(C)C)cccc2C(C)C)s1 [Example 23, N-[2,6-bis(1-methylethyl)phenyl]-N'-(5-dodecyl-1,3,4-thiadiazol-2-yl)urea]	-32	
> 5000	CC(C)c1cccc(C(C)C)c1NC(=O)Nc1nc(-c2ccccc2)ns1 [Example 24, N-[2,6-Bis(1-methylethyl)phenyl]-N'-(3-phenyl-1,2,4-thiadiazol-5-yl)urea]		
7	CCCCCCCCCCCCCc1nc(NC(=O)Nc2c(C(C)C)cccc2C(C)C)no1 [Example 26, N-[2,6-bis(1-methylethyl)phenyl]-N'-[5-tridecyl-1,2,4-oxadiazol-3-yl]urea]		
> 5000	CSc1nnc(NC(=O)Nc2c(C(C)C)cccc2C(C)C)[nH]1 [Example 27]		
250	N-[2,6-bis(1-methylethyl)phenyl]-N'-(2-dodecyl-1H-1,2,4-triazol-5-yl)urea [Example 10]		-36
